Values quoted from earlier work in US20060127456A1, “Novel fiber-based consumer products based on new concepts of fiber modification” (priority 2004, published 2006).

II [Iodine]
increase of solubility (in 1% aqueous solution of PVP, versus water): ~17 fold
solubility in water (water): very sparingly soluble
